Holding throughout (assay): Postemergence herbicidal activity, greenhouse trial (visual injury 0-100%)
Holding throughout (assay type): in vivo

Experiment [1] has as its system kochia (Kochia scoparia, KCHSC). To be noted: Bassia scoparia, post-emergence, read-out: % visual injury Obs. The method in brief:
(§1)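 Read-out is a visual 0–100% injury score against solvent-blank-sprayed controls, taken 20-22 d after treatment; expected mixture effects came from Colby's equation. Two-way combinations in 1.5% v/v crop oil concentrate were sprayed at 187 L/ha onto plants at the second or third true leaf stage.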

The test system of experiment [2] is thistle (Cirsium arvense, CIRAR). A digest of the protocol:
as §1

Experiment [3] has as its system wild buckwheat (Polygonum convolvulus, POLCO). The following applies: Fallopia convolvulus, post-emergence, read-out: % visual injury Obs. The method in brief: as §1
Experiment [4] deals with common lambsquarters (Chenopodium album L., CHEAL). The following applies: Chenopodium album, post-emergence, read-out: % visual injury Obs. The method in brief: as §1
Experiment [5] deals with ivyleaf morning-glory (Ipomoea hederacea, IPOHE). The following applies: Ipomoea hederacea, post-emergence, read-out: % visual injury Obs. The method in brief: as §1
The test system of experiment [6] is wild pansy (Viola tricolor, VIOTR). The following applies: Viola tricolor, post-emergence, read-out: % visual injury Obs. A digest of the protocol:
as §1

For experiment [7], the system named is velvetleaf (Abutilon theophrasti, ABUTH).

From patent US20190364896A1, “SYNERGISTIC WEED CONTROL FROM APPLICATIONS OF PYRIDINE CARBOXYLIC ACID HERBICIDES AND ALS INHIBITORS” (Dow AgroSciences LLC, priority 2014, published 2019) come the findings set out here.

Several values for one entry are separate records, joined by “and”; a condition that tells them apart may be missing. Identical values can stand only once. Like-named read-outs stand apart in the source and are kept apart here.

For `Nc1c(F)c(-c2ccc3cc[nH]c3c2F)nc(C(=O)O)c1Cl` [Compound 1], the pest or weed control at 5 g/ha is 65% in experiment [1] (5 g ae/ha); 60% in experiment [1] (KCHSC, Compound 1 5 g ae/ha); 10% in experiment [2] (Cirsium arvense, post-emergence, 5 g ae/ha, read-out: % visual injury Obs); 70% in experiment [3] (5 g ae/ha); 65% in experiment [3] (POLCO, Compound 1 5 g ae/ha); 80% in experiment [4] (5 g ae/ha). Also, the pest or weed control at 5 g/ha in experiment [4] (CHEAL, Compound 1 5 g ae/ha) was 90%. Also, the pest or weed control at 10 g/ha in experiment [1] (10 g ae/ha) came to 60%; in experiment [1] (KCHSC, Compound 1 10 g ae/ha), 60%; in experiment [4] (10 g ae/ha), 100%; in experiment [4] (CHEAL, Compound 1 10 g ae/ha), 100%; in experiment [5] (10 g ae/ha), 10%; in experiment [5] (IPOHE, Compound 1 10 g ae/ha) it was 10%. Also, the pest or weed control at 10 g/ha worked out at 10% in experiment [6] (10 g ae/ha) and 10% in experiment [6] (VIOTR, Compound 1 10 g ae/ha). The “% visual injury Obs” value in experiment [2] (CIRAR, Compound 1 5 g ae/ha) is 10%; in experiment [7] (5 g ae/ha), 50% and 70%; in experiment [7] (10 g ae/ha) it was 60%; in experiment [7] (ABUTH, Compound 1 5 g ae/ha), 70%.
Consider `CCCOc1nn(C(=O)NS(=O)(=O)c2ccccc2C(=O)OC)c(=O)n1C` [Propoxycarbazone, propoxycarbazone], for which the pest or weed control at […] in experiment [1] (7.5 g ai/ha) was found to be 30%; in experiment [2] (Cirsium arvense, post-emergence, 7.5 g ai/ha, read-out: % visual injury Obs), 75%; in experiment [3] (7.5 g ai/ha), 10%; in experiment [4] (7.5 g ai/ha) it was 30%; in experiment [5] (7.5 g ai/ha) it was 95%; in experiment [6] (7.5 g ai/ha), 20%. In addition, the “% visual injury Obs” value in experiment [7] (7.5 g ai/ha) worked out at 50%.
